In patent US20130030017A1, “QUINOLINE DERIVATIVES AS ANTIBACTERIAL AGENTS” (priority 2005, published 2013):
In brackets after ≈: the same amount, converted by molar mass.

Tests used:
[1] = tested on: Streptococcus pyogens (ATCC8668); assay: Microtitre plate assay, IC90 determination (SPY 8668); assay type: cell-based; conditions: 90% inhibitory concentration for bacterial growth, 37° C., resazurin fluorescence; for IC90 SPY 8668: 24 hours
Experimental: (§1) The bacteria used in this study were grown overnight in flasks containing 100 ml Mueller-Hinton Broth (Becton Dickinson—cat. no. 275730) in sterile de-ionized water, with shaking, at 37° C. Stocks (0.5 ml/tube) were stored at −70° C. until use. Bacteria titrations were performed in microtiter plates and colony forming units (CFUs) were determined. In general, an inoculum level of approximately 100 CFUs was used for susceptibility testing.
(§2) Flat-bottom, sterile 96-well plastic microtiter plates were filled with 180 μl of sterile deionized water, supplemented with 0.25% BSA. Subsequently, stock solutions (7.8× final test concentration) of compounds were added in 45 μl volumes in column 2 Serial five-fold dilutions (45 μl in 180 μl) were made directly in the microtiter plates from column 2 to reach column 11. Untreated control samples with (column 1) and without (column 12) inoculum were included in each microtiter plate. Depending on the bacteria type, approximately 10 to 60 CFU per well of bacteria inoculum (100 TCID50), in a volume of 100 μl in 2.8× Mueller-Hinton broth medium, was added to the rows A to H, except column 12. The same volume of broth medium without inoculum was added to column 12 in row A to H. The cultures were incubated at 37° C. for 24 hours under a normal atmosphere (incubator with open air valve and continuous ventilation). At the end of incubation, one day after inoculation, the bacterial growth was quantitated fluorometrically. Therefore resazurin (0.6 mg/ml) was added in a volume of 20 μl to all wells 3 hours after inoculation, and the plates were re-incubated overnight. A change in colour from blue to pink indicated the growth of bacteria. The fluorescence was read in a computer-controlled fluorometer (Cytofluor Biosearch) at an excitation wavelength of 530 nm and an emission wavelength of 590 nm. The % growth inhibition achieved by the compounds was calculated according to standard methods. The IC90 (expressed in μg/ml) was defined as the 90% inhibitory concentration for bacterial growth.

[2] = tested on: Enterococcus faecalis (ATCC29212); assay: Microtitre plate assay, IC90 determination (EFA 29212); assay type: cell-based; conditions: 90% inhibitory concentration for bacterial growth, 37° C., resazurin fluorescence; for IC90: Enterococcus faecalis, ATCC29212, 24 h; for IC90 EFA 29212: 24 hours
Experimental: as §1, §2

[3] = tested on: Pseudomonas aeruginosa (ATCC27853); assay: Microtitre plate assay, IC90 determination (PAE 27853); assay type: cell-based; conditions: 90% inhibitory concentration for bacterial growth, 37° C., resazurin fluorescence; for IC90: Pseudomonas aeruginosa, ATCC27853, 24 h; for IC90 PAE 27853: 24 hours
Experimental: as §1, §2

[4] = tested on: Streptococcus pneumoniae (ATCC6305); assay: Microtitre plate assay, IC90 determination (SPN 6305); assay type: cell-based; conditions: 90% inhibitory concentration for bacterial growth, 37° C., resazurin fluorescence; for IC90: Streptococcus pneumoniae, ATCC6305, 24 h; for IC90 SPN 6305: 24 hours
Experimental: as §1, §2

[5] = tested on: Staphylococcus aureus (ATCC29213); assay: Microtitre plate assay, IC90 determination (STA 29213); assay type: cell-based; conditions: 90% inhibitory concentration for bacterial growth, 37° C., resazurin fluorescence; for IC90: Staphylococcus aureus, ATCC29213, 24 h; for IC90 STA 29213: 24 hours
Experimental: as §1, §2

[6] = tested on: methicilline resistant Staphylococcus aureus (MRSA) (a clinical isolate from the University of Antwerp); assay: Microtitre plate assay, IC90 determination (STA RMETH); assay type: cell-based; conditions: 90% inhibitory concentration for bacterial growth, 37° C., 24 hours, resazurin fluorescence
Experimental: as §1, §2

[7] = tested on: Staphylococcus aureus (ATCC25923); assay: Microtitre plate assay, IC90 determination (STA 25923); assay type: cell-based; conditions: 90% inhibitory concentration for bacterial growth, 37° C., 24 hours, resazurin fluorescence
Experimental: as §1
Flat-bottom, sterile 96-well plastic microtiter plates were filled with 180 μl of sterile deionized water, supplemented with 0.25% BSA. Subsequently, stock solutions (7.8× final test concentration) of compounds were added in 45 μl volumes in column 2 Serial five-fold dilutions (45 μl in 180 μl) were made directly in the microtiter plates from column 2 to reach column 11. Untreated control samples with (column 1) and without (column 12) inoculum were included in each microtiter plate. […] At the end of incubation, one day after inoculation, the bacterial growth was quantitated fluorometrically. […] The fluorescence was read in a computer-controlled fluorometer (Cytofluor Biosearch) at an excitation wavelength of 530 nm and an emission wavelength of 590 nm. The % growth inhibition achieved by the compounds was calculated according to standard methods. […]

[8] = tested on: Listeria monocytogenes (ATCC49594); assay: Microtitre plate assay, IC90 determination (LMO 49594); assay type: cell-based; conditions: 90% inhibitory concentration for bacterial growth, 37° C., 24 hours, resazurin fluorescence
Experimental: as §1, §2

[9] = tested on: Bacillus subtilis (ATCC43639); assay: Microtitre plate assay, IC90 determination (BSU 43639); assay type: cell-based; conditions: 90% inhibitory concentration for bacterial growth, 37° C., 24 hours, resazurin fluorescence
Experimental: as §1, §2

Row | melting point [°C] | IC90 SPY 8668 [1] [µg/mL] | IC90 EFA 29212 [2] [µg/mL] | IC90 PAE 27853 [3] [µg/mL] | IC90 SPN 6305 [4] [µg/mL] | IC90 STA 29213 [5] [µg/mL] | Structure (SMILES) | also measured
1 | 142 | 7.4 (≈ 15.8 µM) |  |  |  |  | COc1nc2ccc(C)cc2cc1C(c1ccccc1)C(O)(CCc1ccccc1)CCN(C)C (stereo not drawn) [Compound 1] | IC90 [2]: 37.2 µg/mL (≈ 79.4 µM); IC90 [3]: 18.7 µg/mL (≈ 39.9 µM); IC90 [4]: 1.9 µg/mL (≈ 4.05 µM); IC90 [5]: 9.4 µg/mL (≈ 20.1 µM)
2 |  | 1.8 (≈ 3.19 µM) | 1.8 (≈ 3.19 µM) | 1.8 (≈ 3.19 µM) | 1.8 (≈ 3.19 µM) | 1.8 (≈ 3.19 µM) | COc1ccc(C(c2cc3cc(Br)ccc3nc2OC)C(O)(CCc2ccccc2)CCN(C)C)cc1 (stereo not drawn) [Compound 74] | IC90 [6]: 12.6 µg/mL (≈ 22.4 µM)
3 | 142 | 1.9 (≈ 3.18 µM) | 1.9 (≈ 3.18 µM) | 1.9 (≈ 3.18 µM) | 2.1 (≈ 3.51 µM) | 1.9 (≈ 3.18 µM) | COc1ccc(CCC(O)(CCN(C)C)C(c2ccc(Cl)cc2)c2cc3cc(Br)ccc3nc2OC)cc1 (stereo not drawn) [Compound 21] | 
4 |  | 4.0 (≈ 7.04 µM) | 1.8 (≈ 3.17 µM) | 1.8 (≈ 3.17 µM) | 0.5 (≈ 0.88 µM) |  | COc1nc2ccc(Br)cc2cc1C(c1ccc(Cl)cc1)C(O)(CCc1ccccc1)CCN(C)C (stereo not drawn) [Compound 69] | IC90 [6]: 12.7 µg/mL (≈ 22.4 µM); IC90 [5]: 1.8 µg/mL (≈ 3.17 µM)
5 | 156 |  |  |  | 4.8 (≈ 9 µM) | 23.8 (≈ 44.6 µM) | COc1nc2cccc(Br)c2cc1C(c1ccccc1)C(O)(CCc1ccccc1)CCN(C)C (stereo not drawn) [Compound 5] | IC90 ([1]; Streptococcus, ATCC8668, 24 h): 42.4 µg/mL (≈ 79.5 µM); IC90 [2]: 53.4 µg/mL (≈ 100 µM); IC90 [3]: 53.4 µg/mL (≈ 100 µM)
6 | 180 |  |  |  | 7.7 (≈ 15.9 µM) | 48.5 (≈ 100 µM) | CSc1nc2ccc(C)cc2cc1C(c1ccccc1)C(O)(CCc1ccccc1)CCN(C)C (stereo not drawn) [Compound 29] | 
7 | 112 |  |  |  |  | 57.0 (≈ 100 µM) | COc1nc2ccc(Br)cc2cc1C(c1ccccc1)C(O)(CCN(C)C)Cc1cccc2ccccc12 (stereo not drawn) [Compound 41] | IC90 [4]: 2.3 µg/mL (≈ 4.04 µM)
8 | 206 |  |  |  | 46.4 (≈ 79.5 µM) | 52.0 (≈ 89.1 µM) | COc1nc2ccc(Br)cc2cc1C(c1ccccc1)C(O)(CCc1cccc2ccccc12)CCN(C)C (stereo not drawn) [Compound 7] | 
9 |  | 45.1 (≈ 79.4 µM) | 56.8 (≈ 100 µM) | 45.1 (≈ 79.4 µM) | 1.8 (≈ 3.17 µM) | 1.8 (≈ 3.17 µM) | COc1nc2ccc(Br)cc2cc1C(c1ccc(Cl)cc1)C(O)(CCc1ccccc1)CCN(C)C (stereo not drawn) [Compound 70] | IC90 STA RMETH [6]: 12.7 µg/mL (≈ 22.4 µM)

Row | Structure (SMILES) | melting point [°C] | IC90 SPY 8668 [1] [µg/mL] | IC90 EFA 29212 [2] [µg/mL] | IC90 PAE 27853 [3] [µg/mL] | IC90 SPN 6305 [4] [µg/mL] | IC90 STA 29213 [5] [µg/mL] | also measured
10 | COc1nc2ccc(Br)cc2cc1C(c1ccccc1)C(O)(CCc1ccc(F)c(F)c1)CCN(C)C (racemic) [Compound 51] |  | 5.7 (≈ 10 µM) | 10.1 (≈ 17.7 µM) | 9.0 (≈ 15.8 µM) | 0.4 (≈ 0.702 µM) | 1.8 (≈ 3.16 µM) | IC90 STA RMETH [6]: 11.4 µg/mL (≈ 20 µM)
11 | COc1nc2ccc(Br)cc2cc1C(c1ccccc1)C(O)(CCc1ccccc1)CCN(C)C (racemic) [Compound 14] |  | 10.6 (≈ 19.9 µM) | 9.5 (≈ 17.8 µM) | 9.5 (≈ 17.8 µM) | 42.4 (≈ 79.5 µM) | 13.4 (≈ 25.1 µM) | IC90 STA 25923 [7]: 11.9 µg/mL (≈ 22.3 µM); IC90 STA RMETH [6]: 13.4 µg/mL (≈ 25.1 µM); IC90 LMO 49594 [8]: 10.6 µg/mL (≈ 19.9 µM); IC90 BSU 43639 [9]: 13.4 µg/mL (≈ 25.1 µM)
